Test results reported in patent publication US8729095B2, “3-(biaryloxy)propionic acid derivatives for prevention and/or treatment of thromboembolic diseases” (Daiichi Sankyo Company, Limited, priority 2009, dated 2014).

Tests used:
[1] = test system: platelet aggregation induced by ADP in human platelet-rich plasma (PRP); experiment: Human platelet aggregation inhibitory activity (ADP-induced, platelet-rich plasma); assay type: cell-based; conditions: 8 min, ADP final concentration 20 μM, maximum aggregation rate, measured for 8 minutes
Method: A blood collecting syringe containing 1/10 volume of a 3.8% sodium citrate solution was used to collect blood from radial vein of a healthy person. The collected blood was centrifuged at 180×g at room temperature for 10 minutes to separate the supernatant (platelet-rich plasma; PRP). After PRP was separately collected, the remaining blood was centrifuged at 1,600×g for 10 minutes to separately collect platelet-poor plasma (PPP) of the upper layer. PRP was left at rest at 16° C. for 30 minutes, and subsequently used for measurement.
200 μL of the separately collected PRP was dispensed into a cuvette for the aggregation test, and 1 μL of dimethylsulfoxide (control) or a test compound solution diluted with dimethylsulfoxide was added, followed by incubation at 37° C. for 2 minutes. Subsequently, 2 μL of 2 mM ADP was added (final concentration 20 μM) to induce platelet aggregation.
Platelet aggregation was measured for 8 minutes using an aggregometer (MCM HEMA TRACER 313M; MC MEDICAL, INC.). With the light transmittance rate of PPP being set as an aggregation value of 100%, the maximum aggregation rate was determined for each concentration of the test compounds to calculate IC50 values.

[2] = test system: platelet aggregation induced by ADP in rat platelet-rich plasma (PRP); experiment: Platelet aggregation inhibitory activity during oral administration in a rat (ex vivo, ADP-induced); conditions: male Wistar rats, 1 mg/10 ml/kg orally, blood collected 4 hours after administration, ADP final concentration 3 μM, vs. control PRP (solvent only), read-out: Inhibition Rates (%)
Method: 1 mg/10 ml/kg of the test compound was orally administered by gavage to male rats (Slc: Wistar, age 8 to 9 weeks) that had been fasted overnight. 4 hours after administration, a syringe containing 1/10 volume of a 3.13% sodium citrate solution was used to collect blood from the abdominal aorta of a rat under anesthesia. From the collected blood, platelet-rich plasma (PRP) and platelet-poor plasma (PPP) were prepared according to the method described in the method for measuring human platelet aggregation inhibitory activity. PRP was left at rest at 16° C. for 30 minutes, and subsequently used for measurement.
200 μL of the separately collected PRP was dispensed into a cuvette for the aggregation test, followed by incubation at 37° C. for 2 minutes, and subsequently 2 μL of 0.3 mM ADP was added (final concentration 3 μM) to induce platelet aggregation.
Platelet aggregation was measured for 8 minutes using an aggregometer (MCM HEMA TRACER 313M; MC MEDICAL, INC.). With the light transmittance rate of PPP being set as an aggregation value of 100%, the maximum aggregation rate of PRP was determined, and compared with the maximum aggregation rate of control PRP (rat administered only with a solvent) to calculate inhibition rates.

| Structure (SMILES) | IC50 [1] [µM] | inhibition at 1 mg/kg [2] [%] |
| --- | --- | --- |
| C[C@H](CC(=O)O)Oc1cc(F)ccc1-c1ccc(C(=O)N2CCC(N3C(=O)C(C)(C)Oc4ncc(Cl)cc43)CC2)c(F)c1 [Example 35, (3R)-3-[(4′-{[4-(7-Chloro-3,3-dimethyl-2-oxo-2,3-dihydro-1H-pyrido[2,3-b][1,4]oxazin-1-yl)piperidin-1-yl]carbonyl}-3′,4-difluorobiphenyl-2-yl)oxy]butanoic acid] | 3.6 | 96 |
| Cc1cc(-c2ccccc2O[C@H](C)CC(=O)O)ccc1C(=O)N1CCC(N2C(=O)C(C)(C)Cc3ncc(Cl)cc32)CC1 [Example 36, (3R)-3-[(4′-{[4-(7-Chloro-3,3-dimethyl-2-oxo-3,4-dihydro-1,5-naphthyridin-1(2H)-yl)piperidin-1-yl]carbonyl}-3′-methylbiphenyl-2-yl)oxy]butanoic acid] | 5.2 | 47 |
| C[C@H](CC(=O)O)Oc1ccccc1-c1cnc(C(=O)N2CCC(N3C(=O)C(C)(C)Cc4ncc(Cl)cc43)CC2)c(F)c1 [Example 38, (3R)-3-[2-(6-{[4-(7-Chloro-3,3-dimethyl-2-oxo-3,4-dihydro-1,5-naphthyridin-1(2H)-yl)piperidin-1-yl]carbonyl}-5-fluoropyridin-3-yl)phenoxy]butanoic acid] | 2 | 52 |
| CC[C@H](CC(=O)O)Oc1ccccc1-c1cnc(C(=O)N2CCC(N3C(=O)C(C)(C)Oc4ncc(Cl)cc43)CC2)c(F)c1 [Example 41, (3R)-3-[2-(6-{[4-(7-Chloro-3,3-dimethyl-2-oxo-2,3-dihydro-1H-pyrido[2,3-b][1,4]oxazin-1-yl)piperidin-1-yl]carbonyl}-5-fluoropyridin-3-yl)phenoxy]pentanoic acid] | 5.7 | 56 |
| C[C@H](CC(=O)O)Oc1ccc(F)cc1-c1cnc(C(=O)N2CCC(N3C(=O)C(C)(C)Oc4ncc(Cl)cc43)CC2)c(F)c1 [Example 42, (3R)-3-[2-(6-{[4-(7-Chloro-3,3-dimethyl-2-oxo-2,3-dihydro-1H-pyrido[2,3-b][1,4]oxazin-1-yl)piperidin-1-yl]carbonyl}-5-fluoropyridin-3-yl)-4-fluorophenoxy]butanoic acid] | 1.4 | 54 |
| C[C@H](CC(=O)O)Oc1ccc(F)cc1-c1cnc(C(=O)N2CCC(N3C(=O)C(C)(C)Cc4ncc(Cl)cc43)CC2)c(F)c1 [Example 44, (3R)-3-[2-(6-{[4-(7-Chloro-3,3-dimethyl-2-oxo-3,4-dihydro-1,5-naphthyridin-1(2H)-yl)piperidin-1-yl]carbonyl}-5-fluoropyridin-3-yl)-4-fluorophenoxy]butanoic acid] | 3.4 | 55 |
| Cc1cc(-c2cc(F)ccc2O[C@H](C)CC(=O)O)ccc1C(=O)N1CCC(N2C(=O)C(C)(C)Cc3ncc(Cl)cc32)CC1 [Example 45, (3R)-3-[(4′-{[4-(7-Chloro-3,3-dimethyl-2-oxo-3,4-dihydro-1,5-naphthyridin-1(2H)-yl)piperidin-1-yl]carbonyl}-5-fluoro-3′-methylbiphenyl-2-yl)oxy]butanoic acid] | 11 | 51 |
| C[C@@H](COc1ccccc1-c1cnc(C(=O)N2CCC(N3C(=O)C(C)(C)Cc4ncc(Cl)cc43)CC2)c(F)c1)C(=O)O [Example 46, (2S)-3-[2-(6-{[4-(7-Chloro-3,3-dimethyl-2-oxo-3,4-dihydro-1,5-naphthyridin-1(2H)-yl)piperidin-1-yl]carbonyl}-5-fluoropyridin-3-yl)phenoxy]-2-methylpropanoic acid] | 1.8 | 31 |
| C[C@H](CC(=O)O)Oc1ccccc1-c1ccc(C(=O)N2CCC(N3C(=O)C(C)(C)Oc4ncc(Cl)cc43)CC2)c(N)c1 [Example 50, (3R)-3-[(3′-Amino-4′-{[4-(7-chloro-3,3-dimethyl-2-oxo-2,3-dihydro-1H-pyrido[2,3-b][1,4]oxazin-1-yl)piperidin-1-yl]carbonyl}biphenyl-2-yl)oxy]butanoic acid] | 0.87 | 53 |
| C[C@H](CC(=O)O)Oc1ccccc1-c1cc(F)c(C(=O)N2CCC(N3C(=O)C(C)(C)Oc4ncc(Cl)cc43)CC2)c(F)c1 [Example 51, (3R)-3-[(4′-{[4-(7-Chloro-3,3-dimethyl-2-oxo-2,3-dihydro-1H-pyrido[2,3-b][1,4]oxazin-1-yl)piperidin-1-yl]carbonyl}-3′,5′-difluorobiphenyl-2-yl)oxy]butanoic acid] | 7.7 | 75 |
| C[C@H](CC(=O)O)Oc1ccccc1-c1ccc(C(=O)N2CCC(N3C(=O)C(C)(C)Oc4ncc(C#N)cc43)CC2)c(F)c1 [Example 52, (3R)-3-[(4′-{[4-(7-Cyano-3,3-dimethyl-2-oxo-2,3-dihydro-1H-pyrido[2,3-b][1,4]oxazin-1-yl)piperidin-1-yl]carbonyl}-3′-fluorobiphenyl-2-yl)oxy]butanoic acid] | 2.3 | 71 |
| CCc1cnc2c(c1)N(C1CCN(C(=O)c3ccc(-c4ccccc4O[C@H](C)CC(=O)O)cc3F)CC1)C(=O)C(C)(C)O2 [Example 53, (3R)-3-[(4′-{[4-(7-Ethyl-3,3-dimethyl-2-oxo-2,3-dihydro-1H-pyrido[2,3-b][1,4]oxazin-1-yl)piperidin-1-yl]carbonyl}-3′-fluorobiphenyl-2-yl)oxy]butanoic acid] | 6.4 | 44 |
| Cc1ccc(-c2ccc(C(=O)N3CCC(N4C(=O)C(C)(C)Oc5ncc(Cl)cc54)CC3)c(F)c2)c(O[C@H](C)CC(=O)O)c1 [Example 55, (3R)-3-[(4′-{[4-(7-Chloro-3,3-dimethyl-2-oxo-2,3-dihydro-1H-pyrido[2,3-b][1,4]oxazin-1-yl)piperidin-1-yl]carbonyl}-3′-fluoro-4-methylbiphenyl-2-yl)oxy]butanoic acid] | 8.4 | 68 |
